Measurements as given in patent publication US10131652B2, “Pyrimidinyloxy benzene derivatives as herbicides” (E. I. DU PONT DE NEMOURS AND COMPANY, priority 2014, dated 2018).

What was measured:
Type in all cases: in vivo
[1] = system: Italian ryegrass (Lolium multiflorum); experiment: Test B pre-/postemergence plant response
Outline: (§1)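 Visual injury scores on a 0–100 scale (100 = complete control) relative to untreated plants, taken about 10 days post-treatment in greenhouse. Treatments were a directed preemergence soil spray and a postemergence spray at one- to two-leaf stage, using surfactant-containing solvent formulation.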

[2] = system: barnyardgrass (Echinochloa crus-galli); experiment: Test B pre-/postemergence plant response
Outline: as §1

[3] = system: corn (Zea mays); experiment: Test B pre-/postemergence plant response
Outline: as §1

[4] = system: giant foxtail (Setaria faberii); experiment: Test B pre-/postemergence plant response
Outline: as §1

[5] = system: kochia (Kochia scoparia); experiment: Test B pre-/postemergence plant response
Outline: as §1

[6] = system: pigweed (Amaranthus retroflexus); experiment: Test B pre-/postemergence plant response
Outline: as §1

[7] = system: ragweed (common ragweed, Ambrosia elatior); experiment: Test B pre-/postemergence plant response
Outline: as §1

[8] = system: wheat (Triticum aestivum); experiment: Test B pre-/postemergence plant response
Outline: as §1

[9] = system: blackgrass (Alopecurus myosuroides); experiment: Test B postemergence plant response
Outline: (§2)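 Visual injury ratings, 0 = no effect to 100 = complete control, versus untreated controls approximately 10 days after postemergence spraying in greenhouse. Plants were at one- to two-leaf stage, 2 to 10 cm tall, in loam soil/sand blend; a dash denotes no result.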

[10] = system: galium (catchweed bedstraw, Galium aparine); experiment: Test B postemergence plant response
Outline: as §2

[11] = system: barnyardgrass (Echinochloa crus-galli); experiment: Test C flooded paddy test plant response; details: Flood, 250 g ai/ha; scale of 0 to 100 where 0 is no effect and 100 is complete control; 13 to 15 days
Outline: (§3)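 Scale 0 (no effect) to 100 (complete control), assigned visually versus controls after 13–15 d greenhouse. Application: directly to paddy water, 3 cm flood depth kept constant, 2-leaf stage.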

[12] = system: ducksalad (Heteranthera limosa); experiment: Test C flooded paddy test plant response; details: Flood, 250 g ai/ha; scale of 0 to 100 where 0 is no effect and 100 is complete control; 13 to 15 days
Outline: as §3

[13] = system: rice (Oryza sativa); experiment: Test C flooded paddy test plant response; details: Flood, 250 g ai/ha; scale of 0 to 100 where 0 is no effect and 100 is complete control; 13 to 15 days
Outline: as §3

[14] = system: small-flower umbrella sedge (Cyperus difformis); experiment: Test C flooded paddy test plant response; details: Flood, 250 g ai/ha; scale of 0 to 100 where 0 is no effect and 100 is complete control; 13 to 15 days
Outline: as §3

[15] = 31 g ai/ha, Preemergence, 0 to 100 scale where 0 is no effect and 100 is complete control
[16] = 125 g ai/ha, postemergence, 0 to 100 scale, 0 no effect, 100 complete control
[17] = Postemergence, 31 g ai/ha, 0 to 100 scale (0 no effect, 100 complete control)
[18] = Preemergence, 125 g ai/ha, 0 to 100 scale (0 no effect, 100 complete control)

Row | Compound | Plant response rating, Ryegrass, Italian [1, 15] | Plant response rating, Ryegrass, Italian [1, 16] | Plant response rating, Ryegrass, Italian [1, 17] | Ryegrass, Italian plant response rating [1, 18] | Plant response rating, Barnyardgrass [2, 15] | Plant response rating, Barnyardgrass [2, 16] | Plant response rating, Barnyardgrass [2, 17] | Barnyardgrass plant response rating [2, 18] | Plant response rating, Corn [3, 16] | Plant response rating, Corn [3, 17] | Plant response rating, Foxtail, Giant [4, 15] | Plant response rating, Foxtail, Giant [4, 16] | Plant response rating, Foxtail, Giant [4, 17] | Foxtail, Giant plant response rating [4, 18] | Plant response rating, Kochia [5, 15] | Plant response rating, Kochia [5, 16] | Plant response rating, Kochia [5, 17] | Kochia plant response rating [5, 18] | Plant response rating, Pigweed [6, 15] | Plant response rating, Pigweed [6, 16] | further results
1 | C=C(C)c1cc(-c2ccccc2Oc2ncc(Cl)cn2)on1 [Compound 196] | 0 | 0 | 0 | 0 | 0 | 10 | 0 | 10 | 0 | 0 | 0 | 10 | 0 | 20 | 0 | 40 | 0 | 0 | 0 | 60 | Plant response rating, Pigweed [6, 17]: 20; Pigweed plant response rating [6, 18]: 10; Plant response rating, Ragweed [7, 15]: 0; Plant response rating, Ragweed [7, 16]: 20; Plant response rating, Ragweed [7, 17]: 10; Ragweed plant response rating [7, 18]: 0; Plant response rating, Wheat [8, 16]: 0; Plant response rating, Wheat [8, 17]: 0; Plant response rating, Blackgrass [9, 16]: 0; Plant response rating, Blackgrass [9, 17]: 0; Plant response rating, Galium [10, 16]: 100; Plant response rating, Galium [10, 17]: 60; Barnyardgrass plant response rating [11]: 30; Ducksalad plant response rating [12]: 55; Rice plant response rating [13]: 0; Sedge, Umbrella plant response rating [14]: 70
2 | C=C(C)c1cc(-c2ccccc2Oc2ncc(Br)cn2)on1 [Compound 197] | 0 | 0 | 0 | 0 | 0 | 0 | 0 | 0 | 0 | 0 | 0 | 0 | 0 | 0 | 0 | 0 | 0 | 0 | 0 | 10 | Plant response rating, Pigweed [6, 17]: 10; Pigweed plant response rating [6, 18]: 0; Plant response rating, Ragweed [7, 15]: 0; Plant response rating, Ragweed [7, 16]: 0; Plant response rating, Ragweed [7, 17]: 0; Ragweed plant response rating [7, 18]: 0; Plant response rating, Wheat [8, 16]: 0; Plant response rating, Wheat [8, 17]: 0; Plant response rating, Blackgrass [9, 16]: 0; Plant response rating, Blackgrass [9, 17]: 0; Plant response rating, Galium [10, 16]: 50; Plant response rating, Galium [10, 17]: 10; Barnyardgrass plant response rating [11]: 20; Ducksalad plant response rating [12]: 0; Rice plant response rating [13]: 0; Sedge, Umbrella plant response rating [14]: 0
